“And” between values parts separate entries of the source, which are not always exact repeats. Equal values may be shown once. Read-outs that look alike come from different tables or passages of the source.
Tests used:
Test in all cases: Inside-out patch-clamp inhibition of CFTR current by Inh-172
Assay type in all cases: cell-based
W1145A-CFTR = target: T1, W1145A-CFTR (Homo sapiens, UniProt P13569, W1145A)
T1 construct: expressed in transfected cells; host or cells: CHO cells, pcDNA plasmid
Experimental: (§1) CHO cells were grown at 37 °C in Dulbecco’s modified Eagle’s medium supplemented with 10% (vol/vol) fetal bovine serum (Sigma-Aldrich, St. Louis, MO). pcDNA plasmids carrying the desired CFTR construct were transfected to CHO cells using PolyFect transfection reagent (Qiagen, Hilden, Germany) together with green fluorescence protein (GFP) cDNA (pEGFP-C3, Takara Bio, Shiga, Japan) that helps identify expression of CFTR. Cells were first incubated with the transfection reagents at 37 °C for 6-12 hours on sterile glass chips in 35-mm tissue culture dishes before transferred to 27 °C for incubation for 2–7 days. Primers for mutations were ordered from Integrated DNA Technologies (Coralville, IA) and were summarized in Supplementary Data. All CFTR mutants were prepared with QuikChange XL kit (Agilent, Santa Clara, CA) and sequenced at the DNA Core facility at University of Missouri-Columbia.
(§2) Patch-clamp pipettes were made from borosilicate capillary glass using a two-stage vertical puller (PP-81; Narishige, Amityville, NY). The pipette tips were fire polished with a homemade microforge to yield a pipette resistance of 2–5 MΩ when filled with a pipette solution containing (in mM): 140 NMDG-Cl (N-methyl-D-glucamine-chloride), 5 CaCl2, 2 MgCl2, and 10 HEPES, pH 7.4. For recordings, transfected cells on glass chips were transferred into a continuously perfused chamber on the stage of an inverted microscope (IX51; Olympus, Tokyo, Japan) with the perfusing solution containing (in mM): 150 NMDG-Cl, 2 MgCl2, 10 EGTA, 8 Tris, and 10 HEPES, pH 7.4. The membrane patch was excised to an inside-out configuration with a seal resistance >40 GΩ. CFTR currents were recorded with an amplifier (EPC9; HEKA, Holliston, MA), filtered through an eight-pole Bessel filter (LPF-8; Warner Instruments, Hamden, CT) at 100 Hz and digitized to a computer at a sampling rate of 500 Hz with Pulse software (version 8.53; HEKA). The membrane potential was held at −30 mV. Solution exchange was achieved by a fast solution change system (SF-77B; Warner Instruments). Inh-172 was obtained from the CFTR Chemical Compound Program supported by the Cystic Fibrosis Foundation. All experiments were performed at room temperature.
(§3) The steady state mean currents were measured in the Igor Pro software (version 8.0; WaveMetrics). The mean baseline currents were subtracted from the steady state mean currents before the data were used to determine the degrees of inhibition. The degrees of inhibition by CFTR inhibitor 172 were calculated based on the equation:1 %inhibition=1−IInh−172/I0X100% where I0 and Iinh−172 represent uninhibited and inhibited currents, respectively. The IC50 and Hill coefficients were obtained by fitting percent inhibition as a function of [Inh-172] with the Hill equation:2 %inhibition=base+(max−base)/1+xhalf/x^rate where max and base represent the […] percent inhibition by Inh-172, x represents the concentration of Inh-172, and the rate is the Hill coefficient. The estimated IC50 (xhalf) and Hill coefficients are listed in Table 1 as mean ± standard deviation. Each patch-clamp recording was made from a separate cell.

W1145L-CFTR = target: T2, W1145L-CFTR (Homo sapiens, UniProt P13569, W1145L)
T2 construct: expressed in transfected cells; host or cells: CHO cells, pcDNA plasmid
Experimental: as §1, §2, §3

[1] = target: T3, h-pTM8-h-CFTR (human CFTR, three TM8 amino acids replaced with pig's) (Homo sapiens, UniProt P13569, F931L/M929L/T925G); details: for inhibition at 1 µM: 1000 nM Inh-172; for inhibition at 5 µM: 5000 nM Inh-172; for inhibition at 10 µM: 10000 nM Inh-172
T3 construct: expressed in transfected cells; host or cells: CHO cells, pcDNA plasmid
Experimental: as §1, §2, §3

[2] = target: T4, h-pTMD2-h-CFTR (human CFTR with pig CFTR's TMD2) (Homo sapiens, UniProt P13569, A1009S/A789T/A797V/A842T/E1221D/E815D/F931L/G885K/H897K/H950R/I1005V/I1226V/I853V/I869V/I982V/INS1173D/K1174Q/K1177R/K830R/L805I/L889P/M1028L/M837V/M929L/N1184D/N782S/N886K/P888S/Q1012K/Q1035H/R1128T/R899A/S1196Q/S877C/S898G/S912A/T1171A/T1176N/T1179F/T1220V/T788A/T925G/V1017L/V1056I/V794M/W882C/Y1182S); details: for inhibition at 0.5 µM: 500 nM Inh-172; for inhibition at 1 µM: 1000 nM Inh-172; for inhibition at 10 µM: 10000 nM Inh-172
T4 construct: expressed in transfected cells; host or cells: CHO cells, pcDNA plasmid
Experimental: as §1, §2, §3

[3] = 100 nM Inh-172, read-out: percent inhibition of current, Mean
[4] = 500 nM Inh-172, read-out: percent inhibition of current, Mean
[5] = 500 nM Inh-172, read-out: percent inhibition of current, individual cell
[6] = 1000 nM Inh-172, read-out: percent inhibition of current, Mean
[7] = 5000 nM Inh-172, read-out: percent inhibition of current, Mean
[8] = 5000 nM Inh-172, read-out: percent inhibition of current, individual cell
[9] = 10000 nM Inh-172, read-out: percent inhibition of current, Mean
[10] = 10000 nM Inh-172, read-out: percent inhibition of current, individual cell
[11] = read-out: percent inhibition of current, Mean
[12] = read-out: percent inhibition of current, individual cell

T3 sequence (P13569 whole entry T925G/M929L/F931L): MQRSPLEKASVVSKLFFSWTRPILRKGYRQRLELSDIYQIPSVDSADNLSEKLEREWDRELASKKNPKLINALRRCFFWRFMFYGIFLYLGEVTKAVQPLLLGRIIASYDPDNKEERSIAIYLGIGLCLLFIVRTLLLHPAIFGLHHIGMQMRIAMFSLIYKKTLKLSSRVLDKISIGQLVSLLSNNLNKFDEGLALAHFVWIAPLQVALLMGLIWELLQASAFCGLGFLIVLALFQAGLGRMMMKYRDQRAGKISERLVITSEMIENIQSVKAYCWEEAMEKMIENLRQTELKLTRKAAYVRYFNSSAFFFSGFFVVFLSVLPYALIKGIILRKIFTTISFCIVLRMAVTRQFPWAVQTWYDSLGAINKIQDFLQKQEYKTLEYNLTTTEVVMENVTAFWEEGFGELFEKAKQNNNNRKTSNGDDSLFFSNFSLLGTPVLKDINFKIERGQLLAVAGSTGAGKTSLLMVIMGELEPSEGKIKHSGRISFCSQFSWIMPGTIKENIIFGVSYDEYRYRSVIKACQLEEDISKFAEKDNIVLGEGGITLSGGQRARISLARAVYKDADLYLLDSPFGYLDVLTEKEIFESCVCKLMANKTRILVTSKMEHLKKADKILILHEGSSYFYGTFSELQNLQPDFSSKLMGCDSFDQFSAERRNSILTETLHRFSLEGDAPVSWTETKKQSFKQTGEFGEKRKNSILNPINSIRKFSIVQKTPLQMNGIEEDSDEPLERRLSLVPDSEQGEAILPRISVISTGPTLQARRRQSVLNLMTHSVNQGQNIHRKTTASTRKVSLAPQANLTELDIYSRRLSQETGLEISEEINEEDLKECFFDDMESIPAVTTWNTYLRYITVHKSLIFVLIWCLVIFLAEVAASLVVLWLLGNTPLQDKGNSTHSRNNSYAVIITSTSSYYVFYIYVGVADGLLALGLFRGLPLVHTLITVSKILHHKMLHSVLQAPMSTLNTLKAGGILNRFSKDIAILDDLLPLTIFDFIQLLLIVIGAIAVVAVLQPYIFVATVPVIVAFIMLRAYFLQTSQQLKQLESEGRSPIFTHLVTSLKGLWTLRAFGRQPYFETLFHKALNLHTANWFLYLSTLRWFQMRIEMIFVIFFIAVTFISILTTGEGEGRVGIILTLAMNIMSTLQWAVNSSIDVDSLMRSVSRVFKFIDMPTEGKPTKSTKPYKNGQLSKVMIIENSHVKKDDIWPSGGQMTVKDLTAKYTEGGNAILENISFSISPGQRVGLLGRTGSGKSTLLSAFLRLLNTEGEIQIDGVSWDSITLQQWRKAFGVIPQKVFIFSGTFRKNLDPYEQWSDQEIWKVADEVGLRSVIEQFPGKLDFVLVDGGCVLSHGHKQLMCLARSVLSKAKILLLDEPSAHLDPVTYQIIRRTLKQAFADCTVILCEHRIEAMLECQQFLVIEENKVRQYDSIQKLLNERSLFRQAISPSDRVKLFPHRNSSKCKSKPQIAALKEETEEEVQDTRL
T1 sequence (P13569 whole entry W1145A): as the sequence (P13569 whole entry T925G/M929L/F931L) above, with G925T, L929M, L931F, W1145A counted along it
T4 sequence (P13569 with tags, fused parts or gaps with the stated changes): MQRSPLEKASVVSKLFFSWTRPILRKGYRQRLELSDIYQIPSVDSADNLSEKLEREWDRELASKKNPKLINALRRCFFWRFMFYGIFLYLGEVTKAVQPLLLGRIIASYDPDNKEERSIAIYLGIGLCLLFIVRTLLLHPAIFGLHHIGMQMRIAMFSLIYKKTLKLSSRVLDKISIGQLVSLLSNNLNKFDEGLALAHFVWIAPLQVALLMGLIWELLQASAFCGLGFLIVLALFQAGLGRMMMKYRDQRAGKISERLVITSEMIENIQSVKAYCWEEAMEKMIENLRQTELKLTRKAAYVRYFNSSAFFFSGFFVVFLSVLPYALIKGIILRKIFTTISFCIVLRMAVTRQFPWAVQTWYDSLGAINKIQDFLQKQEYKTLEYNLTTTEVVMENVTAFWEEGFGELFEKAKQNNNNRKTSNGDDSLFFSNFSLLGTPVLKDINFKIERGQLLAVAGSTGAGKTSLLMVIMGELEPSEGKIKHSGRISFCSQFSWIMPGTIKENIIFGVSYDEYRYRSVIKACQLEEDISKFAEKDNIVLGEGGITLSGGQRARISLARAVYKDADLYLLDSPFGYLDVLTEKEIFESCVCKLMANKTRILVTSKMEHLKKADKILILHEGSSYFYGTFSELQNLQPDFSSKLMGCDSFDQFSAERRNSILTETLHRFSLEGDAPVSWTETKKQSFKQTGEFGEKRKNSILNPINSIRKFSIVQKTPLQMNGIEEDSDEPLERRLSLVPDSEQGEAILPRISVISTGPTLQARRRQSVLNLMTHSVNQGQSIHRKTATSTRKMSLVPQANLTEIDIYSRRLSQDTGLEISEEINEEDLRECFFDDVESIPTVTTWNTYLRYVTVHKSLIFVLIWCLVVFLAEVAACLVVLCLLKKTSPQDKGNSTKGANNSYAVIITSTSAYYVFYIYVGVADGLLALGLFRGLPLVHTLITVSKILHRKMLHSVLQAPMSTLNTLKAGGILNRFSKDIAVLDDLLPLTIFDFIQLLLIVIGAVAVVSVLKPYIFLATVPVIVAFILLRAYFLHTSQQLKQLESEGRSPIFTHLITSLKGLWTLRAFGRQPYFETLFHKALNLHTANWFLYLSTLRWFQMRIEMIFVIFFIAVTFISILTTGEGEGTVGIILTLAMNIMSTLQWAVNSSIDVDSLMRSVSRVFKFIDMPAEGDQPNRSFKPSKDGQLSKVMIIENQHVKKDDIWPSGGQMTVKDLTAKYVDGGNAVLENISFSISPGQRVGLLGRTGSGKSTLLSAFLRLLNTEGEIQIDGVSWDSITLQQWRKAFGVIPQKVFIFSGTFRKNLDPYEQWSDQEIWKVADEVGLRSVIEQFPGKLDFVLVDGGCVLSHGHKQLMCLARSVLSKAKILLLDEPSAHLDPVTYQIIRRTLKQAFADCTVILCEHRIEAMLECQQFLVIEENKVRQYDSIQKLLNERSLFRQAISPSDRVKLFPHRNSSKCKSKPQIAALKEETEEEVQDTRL
T2 sequence (P13569 whole entry W1145L): as the sequence (P13569 whole entry T925G/M929L/F931L) above, with G925T, L929M, L931F, W1145L counted along it

Structure (SMILES): O=C(O)c1ccc(/C=C2\SC(=S)N(c3cccc(C(F)(F)F)c3)C2=O)cc1 [Inh-172, CFTRinh-172]
- percent inhibition of current, individual cell (W1145A-CFTR; 100 nM Inh-172): 2 and 8 and 0.5
- inhibition at 0.1 µM (W1145A-CFTR; [3]): 3.5%
- percent inhibition of current, individual cell (W1145A-CFTR; 500 nM Inh-172): 32 and 33
- inhibition at 0.5 µM (W1145A-CFTR; [4]): 37.3%
- inhibition at 0.5 µM (W1145A-CFTR; [5]): 42%
- percent inhibition of current, individual cell (W1145A-CFTR; 1000 nM Inh-172): 60 and 69 and 44 and 52 and 49
- inhibition at 1 µM (W1145A-CFTR; [6]): 54.8%
- percent inhibition of current, individual cell (W1145A-CFTR; 5000 nM Inh-172): 89 and 75 and 91 and 80
- inhibition at 5 µM (W1145A-CFTR; [7]): 85%
- inhibition at 5 µM (W1145A-CFTR; [8]): 90%
- percent inhibition of current, individual cell (W1145A-CFTR; 10000 nM Inh-172): 86 and 88
- inhibition at 10 µM (W1145A-CFTR; [9]): 89.8%
- inhibition at 10 µM (W1145A-CFTR; [10]): 95%
- Hill Coefficient (W1145A-CFTR; W1145A): 1.08 ± 0.12
- IC50 (W1145A-CFTR; W1145A): 880 ± 90 nM
- percent inhibition of current, individual cell (W1145L-CFTR; 100 nM Inh-172): 11
- inhibition at 0.1 µM (W1145L-CFTR; [3]): 16%
- inhibition at 0.1 µM (W1145L-CFTR; 100 nM Inh-172, read-out: percent inhibition of current, individual cell): 21%
- percent inhibition of current, individual cell (W1145L-CFTR; 500 nM Inh-172): 42 and 48
- inhibition at 0.5 µM (W1145L-CFTR; [4]): 44.3%
- inhibition at 0.5 µM (W1145L-CFTR; [5]): 43%
- percent inhibition of current, individual cell (W1145L-CFTR; 1000 nM Inh-172): 59 and 67
- inhibition at 1 µM (W1145L-CFTR; [6]): 62.3%
- inhibition at 1 µM (W1145L-CFTR; 1000 nM Inh-172, read-out: percent inhibition of current, individual cell): 61%
- percent inhibition of current, individual cell (W1145L-CFTR; 5000 nM Inh-172): 83 and 87 and 70
- inhibition at 5 µM (W1145L-CFTR; [7]): 81.3%
- inhibition at 5 µM (W1145L-CFTR; [8]): 85%
- percent inhibition of current, individual cell (W1145L-CFTR; 10000 nM Inh-172): 91 and 83
- inhibition at 10 µM (W1145L-CFTR; [9]): 89.5%
- inhibition at 10 µM (W1145L-CFTR; [10]): 92%
- Hill Coefficient (W1145L-CFTR; W1145L): 0.82 ± 0.07
- IC50 (W1145L-CFTR; W1145L): 640 ± 60 nM
- inhibition at 0.1 µM [1, 3]: 18.4%
- inhibition at 0.5 µM [1, 4]: 46.3%
- inhibition at 1 µM [1, 11]: 58.5%
- inhibition at 1 µM [1, 12]: 68%
- inhibition at 5 µM [1, 11]: 83.3%
- inhibition at 5 µM [1, 12]: 89%
- inhibition at 10 µM [1, 11]: 91%
- inhibition at 10 µM [1, 12]: 93%
- Hill Coefficient ([1]; h-pTM8-h): 0.80 ± 0.02
- IC50 ([1]; h-pTM8-h): 640 ± 20 nM
- inhibition at 0.1 µM [2, 3]: 6.8%
- inhibition at 0.5 µM [2, 11]: 18.8%
- inhibition at 0.5 µM [2, 12]: 15%
- inhibition at 1 µM [2, 11]: 28.5%
- inhibition at 1 µM [2, 12]: 22%
- inhibition at 5 µM [2, 7]: 56.5%
- inhibition at 10 µM [2, 11]: 62.7%
- inhibition at 10 µM [2, 12]: 68%
- Hill Coefficient ([2]; h-pTMD2-h): 0.69 ± 0.04
- IC50 ([2]; h-pTMD2-h): 4020 ± 280 nM
- IC50 ([2]; human CFTR with pig TMD2, earlier manuscript version, peer review file): 4020 nM
